Reference: ChEMBL document CHEMBL3885861, “Open TG-GATES”

Species: Rattus norvegicus
Assay: Open TG-GATES - Regimen: Single
Type: toxicity, organism-based, Sprague-Dawley
Set-up: regimen Single, gender Male, age 6 weeks
Settings: in vivo, po, 0 mg/kg, route gavage, dose level Control; for APTT / Bas / Eos / Fbg / Hb / Ht / Lym / MCH / MCHC / MCV / Mono / Neu / PT / Plat / RBC / Ret / WBC: tissue Blood; for KIDNEY_L / KIDNEY_R / KIDNEY_TOTAL: tissue Kidney; for LIVER: tissue Liver; for A/G / ALP / ALT / AST / BUN / CRE / Ca / Cl / DBIL / GLC / IP / K / LDH / Na / PL / RALB / TBIL / TC / TG / TP / gamma-GTP: tissue Plasma

## Nc1c2c(nc3ccccc13)CCCC2 [TACRINE]
3 h
  TERMINAL_BW: 206.5 g
  APTT: 19.7 s
  Bas: 0%
  Eos: 0.8%
  Fbg: 293.2 mg/dL
  Hb: 13 g/dL
  Ht: 37.9%
  Lym: 81.6%
  MCH: 21.2 pg
  MCHC: 34.2%
  MCV: 61.7 fL
  Mono: 2%
  Neu: 15%
  PT: 16.3 s
  Plat: 114.9 x10_4/uL
  RBC: 614.4 x10_4/ul
  Ret: 7.9%
  WBC: 97 x10_2/uL
  KIDNEY_L: 0.9 g
  KIDNEY_R: 0.9 g
  KIDNEY_TOTAL: 1.8 g
  LIVER: 9.3 g
  A/G: 1.2
  ALP: 1417 IU/L
  ALT: 39.6 IU/L
  AST: 77.8 IU/L
  BUN: 13 mg/dL
  CRE: 0.2 mg/dL
  Ca: 10.6 mg/dL
  Cl: 106.8 meq/L
  DBIL: 0.002 mg/dL
  GLC: 189.6 mg/dL
  IP: 7.9 mg/dL
  K: 3.9 meq/L
  LDH: 229 IU/L
  Na: 142.6 meq/L
  PL: 131.4 mg/dL
  RALB: 3 g/dL
  TBIL: 0.018 mg/dL
  TC: 73.2 mg/dL
  TG: 60 mg/dL
  TP: 5.4 g/dL
  gamma-GTP: 1.2 IU/L
6 h
  TERMINAL_BW: 208.7 g
  APTT: 21.4 s
  Bas: 0%
  Eos: 0.8%
  Fbg: 310.4 mg/dL
  Hb: 13.3 g/dL
  Ht: 38.6%
  Lym: 80.2%
  MCH: 21.1 pg
  MCHC: 34.5%
  MCV: 61.1 fL
  Mono: 2.6%
  Neu: 16%
  PT: 16.1 s
  Plat: 115.4 x10_4/uL
  RBC: 632.2 x10_4/ul
  Ret: 7.7%
  WBC: 96.6 x10_2/uL
  KIDNEY_L: 0.9 g
  KIDNEY_R: 0.9 g
  KIDNEY_TOTAL: 1.9 g
  LIVER: 9 g
  A/G: 1.2
  ALP: 1333 IU/L
  ALT: 38.4 IU/L
  AST: 74.6 IU/L
  BUN: 10.8 mg/dL
  CRE: 0.2 mg/dL
  Ca: 10.6 mg/dL
  Cl: 106.8 meq/L
  DBIL: 0 mg/dL
  GLC: 176.6 mg/dL
  IP: 9.2 mg/dL
  K: 4.6 meq/L
  LDH: 252.4 IU/L
  Na: 142 meq/L
  PL: 137.4 mg/dL
  RALB: 2.9 g/dL
  TBIL: 0.016 mg/dL
  TC: 79.4 mg/dL
  TG: 82 mg/dL
  TP: 5.4 g/dL
  gamma-GTP: 1.2 IU/L
